Consider one compound from paper PMC11251039, “Harnessing cholesterol uptake of malaria parasites for therapeutic applications” (EMBO Molecular Medicine, 2024).

For test [1], the system named is human foreskin fibroblasts (HFF). The experiment in a line: Human foreskin fibroblast growth inhibition assay (SYBR Safe). To be noted: Homo sapiens, Fibroblast; 72 h, HFF; read-out: IC50, human fibroblast growth inhibition. Format: cell-based. On the procedure:
HFF cell growth inhibition assays commenced by adding 5000 cells to each well of a 96-well plate. 10 µg/mL cycloheximide was used as a no-growth control. DNA replication (indicating growth) was measured at the specified time using SYBR Safe DNA Gel Stain (Invitrogen 33102) and a fluorescence microplate reader. […]
Human Foreskin Fibroblast Growth Inhibition Assays:
The HFF cell line was maintained under routine culture conditions in DMEM containing 3.7 g/L NaHCO3 supplemented with 10% v/v newborn calf serum (NCS), 50 units/mL penicillin, 50 μg/mL streptomycin, 10 μg/mL gentamicin, 0.25 μg/mL amphotericin B, and 0.2 mM L-glutamine at 37 °C in a humidified 5% CO2 incubator. […]
HFF cells were detached from a flask using 0.25% Trypsin with 0.2 g/L EDTA (Sigma T4049) and washed with culture media. Cells were incubated with a serial dilution of each compound, or media/DMSO alone. Cycloheximide at 10 µg/mL was used as a positive control to determine background fluorescence. Approximately 5 000 cells were seeded in each well. Plates were incubated at 37 °C for 72 hours (until reaching confluency) and the media was removed. Plates were transferred to a -18 °C freezer. Plates were thawed and SYBR Safe DNA Gel Stain (final concentration 1/10,000) diluted in lysis buffer (as above) was added. Fluorescence was read at 490 nm excitation/ 520 nm emission on a FLUOstar Optima fluorescence plate reader. […]

For test [2], the system named is Toxoplasma gondii tachyzoites (RH strain). Put plainly: Toxoplasma growth inhibition assay (tdTomato fluorescence, in HFF cells). Format: cell-based. To be noted: Toxoplasma gondii, HFF, 72 h, read-out: IC50, T. gondii tachyzoite growth inhibition. On the procedure:
Fluorescence was measured daily with a fluorescence microplate reader for one week, and the background fluorescence from the time 0 reading was subtracted from all other measurements. […]
Toxoplasma Growth Inhibition Assays:
Growth inhibition was investigated as described previously (26). Fluorescent Toxoplasma gondii parasites were inoculated into an optical bottom 96-well plate containing confluent human foreskin fibroblast (HFF) host cells at a density of 2,000 parasites/well, with a serial dilution of each compound, or culture media/DMSO (0.1% v/v) alone. Plates were measured daily with a FluoStar Optima fluorescence plate reader at 540 nm excitation and 590 nm emission for one week, and the background fluorescence from the time 0 reading was subtracted from all other measurements. […]

Test [3] relates to asexual P. falciparum 3D7 wild-type parasites. Put plainly: P. falciparum asexual growth inhibition assay (SYBR Safe DNA replication). The note with it: for P. falciparum asexual growth, percentage of control: replicate values, source data Fig. 2B; for IC90 / IC50: Plasmodium falciparum; for IC50: read-out: IC50, P. falciparum asexual growth inhibition. Format: cell-based, Plasmodium falciparum. In a few lines: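 Sorbitol-synchronised ring-stage cultures at 1% parasitaemia and 1% haematocrit were exposed to 2-fold compound dilutions at 37 °C under microaerophilic conditions for 24, 48 or 72 h. Growth was read by SYBR Safe fluorescence of freeze-thaw lysates, with 200 nM chloroquine or artesunate defining background.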

Test [4] deals with P. berghei liver stage parasites. The experiment in a line: P. berghei liver stage parasite size and number (fluorescence microscopy, coverslips). Format: cell-based, Plasmodium berghei. On the procedure: Uninfected wells served as a control for background luminescence. […] No other manipulations were performed.
Appendix Fraser/Curtis et al.
For measurement of parasite size and number, 20,000 Huh7 cells were seeded onto collagen-coated coverslips on the day prior to infection. As above, 10,000 – 20,000 sporozoites were added per slide, allowed to invade for 60 minutes after centrifugation, and then incubated for […]
Infected cells were fixed with 3% paraformaldehyde in PBS, permeabilized with 0.3% v/v Triton X-100, and labelled with 1:1,000 polyclonal chicken anti-GFP (Abcam ab13970), 1:2,000 goat anti-chicken Alexa […]
intrinsic GFP fluorescence could be detected, as well as Fluoromount-G® containing 4′,6-diamidino-2-phenylindole (DAPI; Southern Biotech), to stain parasite and host cell nuclei.
Images were collected on a Zeiss Axio Observer Z2 microscope with a Zeiss AxioCam MRm at 200× or 400× (for quantification) or 630× (for cell images) magnification, with a resolution of […], 163 nm or 102 nm per pixel respectively. Alexa Fluor™ 546 fluorescence was detected at 546/13 nm excitation and 675/35 nm emission. […]
fluorescence was detected at 470/20 nm excitation and 525/25 nm emission. DAPI fluorescence (nucleic acid) was detected at 359/24 nm ex and 445/25 nm em. For quantification, all cells on each coverslip were imaged under the same settings for each experiment. P. berghei liver stage size was measured as described (24) using Fiji ImageJ (25). Liver-stage parasites were identified and delineated in fluorescent images using defined threshold levels, and the identified fluorescent areas were used to measure parasite area. The number of parasites on each coverslip was also counted. […]
manipulations were performed.

“And” between values parts separate entries of the source, which are not always exact repeats. Equal entries are not always repeated. Where two headings read alike, the source gives them in different places.

In general, IC50 refers to the concentration that gives 50% inhibition. As a reminder, the IC90 is the point of the concentration-response curve where the effect stands at 90%. `COc1cc(NC(C)CCCN)c2ncccc2c1` (stereo not shown) [Primaquine, primaquine, reference compound]: the IC50 in test [1] stood at 41.8 µM; in test [2], 9.7 µM; in test [3] (3D7, 48 h), 6.5 µM; in test [3] (3D7, 72 h) it was 2.6 µM; in test [3] (3D7, 24 h, starting at ring stages), 11.5 µM. Further, the “P. falciparum asexual growth, percentage of control” value in test [3] (0.048828130 uM, 24 h) is 103.5% and 112.3% and 122.3% and 109.6% and 103.8% and 107.6%; in test [3] (0.097656250 uM, 24 h), 133.8% and 115.8% and 109.7% and 98.88% and 101.1% and 114.9%; in test [3] (0.195312500 uM, 24 h) it was 92.88% and 92.1% and 75.42% and 87.41% and 53.27% and 109.2% and 104.7% and 89.49%; in test [3] (0.390625000 uM, 24 h) it was 101% and 92.22% and 85.08% and 86.3% and 91.98% and 87.62% and 106.4% and 103.7% and 80.96%; in test [3] (0.781250000 uM, 24 h), 87.28% and 86.95% and 87.11% and 97.7% and 104.2% and 88.59% and 104.3% and 96.91% and 94.25%; in test [3] (1.562500000 uM, 24 h) it was 104.9% and 96.53% and 90.19% and 106.5% and 37.96% and 92.95% and 112.9% and 86.68% and 94.95%. Further, the “P. falciparum asexual growth, percentage of control” value in test [3] (3.125000000 uM, 24 h) is 98.46% and 91.72% and 71.7% and 85.23% and 66.97% and 105.3% and 93.44% and 88.46% and 77.37%; in test [3] (6.250000000 uM, 24 h), 70.33% and 75.07% and 74.44% and 55.89% and 62.38% and 52.2% and 93.44% and 79.9% and 76.14%; in test [3] (12.500000000 uM, 24 h) it was 59.74% and 51.28% and 54.52% and 22.36% and 27.69% and 24.85% and 101.7% and 67.6% and 71.11%; in test [3] (25.000000000 uM, 24 h) it was 32.29% and 12.73% and 20.21% and 8.779% and -12.09% and 0.142% and 58.69% and 51.9% and 34.08%; in test [3] (50.000000000 uM, 24 h) it was 4.003% and -4.24% and -21.02% and -13.23% and -31.85% and -34.48% and 21.18% and 8.951% and 16.84%. For the same compound, the IC90 in test [3] (3D7, 24 h) was 41 µM; in test [3] (3D7, 72 h) it was 11.4 µM. For the same compound, the “Reduction of parasite size (area) compared to untreated parasites” value is reported as “not at 0.3 µM” in test [4] (0.3 µM, 48 h) and 61% in test [4] (3 µM, 48 h). Moreover, the “Normalised mean size of liver stage parasites, percentage of the solvent control” value in test [4] (0.3 μM, 48 h, per coverslip, source data Fig. 3C) was 100% and 99.34% and 108% and 106.3% and 110.6% and 86.33%. Further, the “Figure 3C - Individual Data Points (P. berghei liver stage parasite size, individual parasites)” value in test [4] (0.3 μM, Assay 2, first replicate column, individual data points) is 43.02 and 107.9 and 92.89 and 48.67 and 95.55 and 31.33 and 39.11 and 132.2 and 73.2 and 29.42.
